{"source": "patent US20160184459A1", "about": "“CANCER CELL SPECIFIC IMAGING PROBES AND METHODS OF USE” (THE RESEARCH FOUNDATION FOR THE STATE UNIVERSITY OF NEW YORK, priority 2013, published 2016)", "key": {"[1]": {"test_system": "malignant cell lines with high HDAC and CTSL activity (COGA-10, HCA-7, HT29, HCT116)", "experiment": "MTS cell viability assay, malignant colon cancer cell lines", "format": "cell-based", "conditions": "Homo sapiens, 120 h, 5 d, read-out: IC50, inhibition of cell viability", "description": "(§1) FIG. 13. Inhibition of cell viability by BKAc-Puro is presented in dose-response curve format for the same cell lines as in FIG. 8. The cell lines were treated with DMSO or the indicated doses of agent (4.22, 8.44, 16.9, 33.8, 67.5, or 135 μM) for 5 d followed by MTS assay. Data represent mean values of triplicate measurements±s.d. (n=3). IC50 values were fit by logistic regression.\nCell number was determined by cell counting using improved Neubauer hemacytometer. Cell viability was calculated as the number of viable cells divided by the total number of cells using Trypan Blue Stain (Invitrogen) to distinguish non-viable cells. Data were obtained from duplicated samples with quadruplicate measurements. MTS based cell viability assay was performed using CellTiter 96 Aqueous Cell Proliferation Assay (Promega) according to the manufacturer's instruction. […] After additional 2-3 h incubation, the absorbance of the formazan at 490 nm was measured by the microplate reader. […] Determination of non-viable cells using PI staining was performed by adding 1 μg/ml of PI solution (Sigma) to the cell culture, prior to the examination under fluorescence microscopy (Axiovert 3, Carl Zeiss) through a×32 objective equipped with a digital imaging processor (Infinity 3, Lumenera)."}, "[2]": {"test_system": "non-malignant Caco-2 cells", "experiment": "MTS cell viability assay, Caco-2", "format": "cell-based, human", "description": "as §1\nFIG. 14. Inhibition of cell viability by parental Puro. The cell lines were treated with the indicated doses of Puro (0, 1.1, 2.1, 4.2, or 8.4 μM) for 3 d followed by MTS assay. Data represent mean values of triplicate measurements±s.d.\nCell number was determined by cell counting using improved Neubauer hemacytometer. Cell viability was calculated as the number of viable cells divided by the total number of cells using Trypan Blue Stain (Invitrogen) to distinguish non-viable cells. Data were obtained from duplicated samples with quadruplicate measurements. MTS based cell viability assay was performed using CellTiter 96 Aqueous Cell Proliferation Assay (Promega) according to the manufacturer's instruction. Either 1 μl of DMSO alone or variable concentrations of BKAc-Puro or Puro in DMSO were added to the cell lines seeded at 5×10^4 cells per well in 96-well tissue culture plates in 100 μl of the growth medium, followed by 3-5 d incubation at 37° C. with 5% CO2 atmosphere. Then 20 μl of the MTS reagent was added to each well. After additional 2-3 h incubation, the absorbance of the formazan at 490 nm was measured by the microplate reader. Percent cell viability was expressed relative to the wells containing cells treated with DMSO alone. Data were obtained from triplicate measurements. […] Determination of non-viable cells using PI staining was performed by adding 1 μg/ml of PI solution (Sigma) to the cell culture, prior to the examination under fluorescence microscopy (Axiovert 3, Carl Zeiss) through a×32 objective equipped with a digital imaging processor (Infinity 3, Lumenera)."}, "[3]": {"test_system": "Puro-incorporated proteins in HCT116, HT29, CCD841-CoN and Caco-2 cells", "experiment": "Immunoblotting of Puro-incorporated proteins in cell lysates", "format": "cell-based, human", "conditions": "16.9 μM, 20 h", "description": "FIG. 27. Levels of Puro-incorporated proteins in the cells were monitored by immunoblotting. Indicated cell lines were treated either with vehicle control DMSO or Boc-KAc-Puro (16.9 μM) in the presence or absence of TSA (0.5 μM) for 20 h, followed by preparation of cell lysates. The lower panel (anti-α-Tubulin) serves as a loading control.\nFIG. 28. Levels of Puro-incorporated proteins in the cells were monitored by immunoblotting. Indicated cell lines were treated either with vehicle control DMSO or Puro (2.1 μM) in the presence or absence of TSA (0.5 μM) for 16 h, followed by preparation of cell lysates. […] The lower panel (anti-α-Tubulin) serves as a loading control.\nCultured cells or tissue samples were sonicated in RIPA lysis buffer (1% NP-40, 0.1% SDS, 50 mM Tris-HCl pH 7.4, 150 mM NaCl, 0.5% sodium deoxycholate, 1 mM EDTA) supplemented with PMSF and protease inhibitor cocktail (Roche) on ice followed by clarification. Protein lysates were separated on sodium dodecyl sulfate-polyacrylamide gels and transferred onto nitrocellulose membranes (Whatman). The primary antibodies used were anti-puromycin (3RH11, KeraFAST) and anti-α-tubulin (Sigma-Aldrich). Proteins of interest were detected with anti-mouse secondary antibody by chemiluminescence (ECL Kit, GE Healthcare Life Sciences)."}, "[4]": {"test_system": "Puro incorporation in tumors, muscle and kidney", "experiment": "Immunoblotting of Puro-labeled proteins in tissue lysates of HT29 xenograft mice", "format": "in vivo, mouse", "conditions": "150 mg/kg/dose daily intraperitoneal for 3 d", "description": "FIG. 29. In vivo anticancer efficacy of Boc-KAc-Puro. (a) Tumor growth in HCT116 xenograft model. Animals were treated with acidified saline control or Boc-KAc-Puro (50 or 150 mg/kg). Values are mean±s.d. (n=5 mice per group). *** P<0.001 compared to the control group. P=0.000716 (50 mg/kg), P=0.000349 (150 mg/kg) at 10 d. (b) Body weight change during the treatment in a and was monitored as a sign of general animal health. Values are mean±s.d. (c) Tumor growth in HT29 xenograft model. Animals were treated with acidified saline control or Boc-KAc-Puro (150 mg/kg). Values are mean±s.d. (n=5 mice per group). *** P<0.001 compared to the control group. P=0.000514 (150 mg/kg) at 10 d. (d) Body weight change during the treatment in c was monitored as a sign of general animal health. Values are mean±s.d. (e) Levels of Puro-incorporated proteins were monitored by immunoblotting. […]\nCultured cells or tissue samples were sonicated in RIPA lysis buffer (1% NP-40, 0.1% SDS, 50 mM Tris-HCl pH 7.4, 150 mM NaCl, 0.5% sodium deoxycholate, 1 mM EDTA) supplemented with PMSF and protease inhibitor cocktail (Roche) on ice followed by clarification. […] Proteins of interest were detected with anti-mouse secondary antibody by chemiluminescence (ECL Kit, GE Healthcare Life Sciences). […]"}, "RPMI8226 cells": {"test_system": "RPMI8226 cells", "experiment": "Live single cell detection by FACS, cell surface Puro", "format": "cell-based", "conditions": "20 μg/ml, 16 hr, anti-puro antibody (12D10) Alexa 647, FACS", "description": "Cell surface detection of Puro by anti-puro antibody (12D10) conjugated to Alexa 647 (EMD Millipore). RPMI8226 cells were treated with Puro (0.25 μg/ml) or Boc-KAc-Puro (20 μg/ml) for 16 hr then harvested by centrifugation followed by two times wash using cold washing solution (0.1% BSA in PBS). Cells were resuspended in the same solution and incubated 30 min on ice with Alexa 647 conjugated mouse IgG2a anti-puromycin antibody (12D10). Cells were washed twice with the solution followed by FACS analysis (BD FACSCalibur). The specificity of the antibody was confirmed by using isotype control antibody (mouse IgG2a conjugated with Alexa 647)."}}, "data": [{"molecule": "COc1ccc(CC(NC(=O)C(CCCCNC(C)=O)NC(=O)OC(C)(C)C)C(=O)NC2C(O)[C@H](n3cnc4c(N(C)C)ncnc43)O[C@@H]2CO)cc1", "note": "(stereo partly drawn) [BKAc-Puro, N-[3′-(α-Amino-p-methoxyhydrocinnamamido)-3′-deoxy-N,N-dimethyldenosinyl)-N-α-(t-butoxycarbonyl]-N-ε-acetyl-L-lysineamide]", "values": [{"measurement": "IC50", "setting": "[1]", "value": "~10", "unit": "µM"}, {"measurement": "Highest inactive dose relative to dose of parental Puro effective to Caco-2 cells", "setting": "[2]; 135 μM BKAc-Puro vs parental Puro", "value": "more than 30 times"}, {"measurement": "IC50", "setting": "[2]; Homo sapiens, Caco-2, 120 h, MTS, 5 d, sufficient inhibition not achieved with doses up to 135 μM", "value": "> 135", "unit": "µM"}, {"measurement": "Intensity of Puro incorporation, malignant versus normal and non-malignant cells", "setting": "[3]", "value": "substantially greater in malignant cancer cells"}, {"measurement": "Intensity of Puro incorporation in the presence of TSA", "setting": "[3]; TSA 0.5 μM", "value": "compromised intensity"}, {"measurement": "Intensity of Puro incorporation, tumors versus normal muscle and kidney", "setting": "[4]", "value": "substantially greater in tumors"}, {"measurement": "Puro presentation on cell surface proteins", "setting": "RPMI8226 cells", "value": "confirmed"}]}]}
